Patent US7629140B2, “Assay for cytochrome P450 isoform 2C9” (Istituto di Richerche di Biologia Molecolare P. Angeletti …, priority 2004, dated 2009)

Key:
CYP2C9 [1] = target: T1, CYP2C9 (Homo sapiens, UniProt P11712); test: Radiometric CYP2C9 assay using [4′-3H]-diclofenac: formation of [3H]-H2O in pooled human liver microsomes
Method: (§1) Radiometric CYP2C9 assays using [4′-^3H]-diclofenac. […] (Woburn, Mass.). Inhibitors were added to the reaction mixture from stock solutions in DMSO/acetonitrile/water (35:25:40, v/v), giving final solvent concentrations of 0.7% DMSO and 0.5% acetonitrile. No inhibitor controls contained an equivalent amount of vehicle. Following preincubation for 10 minutes at 37° C., reactions were started by addition of 1 mM NADPH and an NADPH regenerating system containing 5 mM glucose-6-phosphate, 3 mM MgCl2, and 1 U/mL glucose-6-phosphate dehydrogenase. Assays were conducted for 10 minutes at 37° C. and stopped by addition of HCl to a final concentration of 0.1 N. Plates were then centrifuged for 10 minutes in a microplate rotor and supernatants loaded into the wells of a preconditioned 10 mg OASIS 96-well HLB plate. OASIS HLB 96 well extraction plates and vacuum manifold are available from Waters Corp., Newcastle, Del. Vacuum was applied and the void volume collected in the collection plate. Then, 75 μL of water was added, vacuum was applied again, and the wash was collected into the same plate. Pooled void volume and water wash were transferred into scintillation vials and counted in a beta-scintillation counter. Alternatively, aliquots were counted in 24- or 96-well scintillation plates using a TOPCOUNT scintillation counter (Packard, Perkin Elmer, Boston, Mass.). For the calculation of enzyme activity, product counts were corrected by subtraction of counts obtained in control incubations performed in the absence of NADPH regenerating system.
Calculation of the apparent rate of formation of unlabelled product from tracer competition experiments. When assays are performed using a fixed amount of [4′-^3H]-diclofenac and varying concentrations of unlabelled diclofenac, the velocity of formation of unlabelled product, v, is given by: v=v*/SAP equation 3 where v* is the velocity of formation of tritiated water. Substituting from equation 2, we obtain: v=v*x(^TV/K)/SA0 equation 4 Defining v′ as the velocity of formation of unlabelled product divided by the kinetic isotope effect, i.e. v′=v/(^TV/K) equation 5 we obtain v′=v*/SA0 equation 6 Without using the known ^TV/K ratio (which would be tautological, since it was derived from SAP), v′, the apparent formation rate of unlabelled product, can be calculated. When plotted against the substrate concentration, S, and fitted to the Hill equation (equation 7), V′max, S50, the substrate concentration at 50%, and n, the Hill coefficient, can be derived.

CYP2C9 [2] = target: T1, CYP2C9; test: in vitro
Method: as §1
Quantification of 4′hydroxydiclofenac. Aliquots of the assay reaction mixture and of metabolite standard curves were analyzed by HPLC using an Agilent HP1100 liquid chromatograph (Agilent Technologies) equipped with a CTC Analytics PAL Autosampler (HTS PAL; CTC Analytics AG, Switzerland). Chromatography was performed on a XTERRA MS C18 column (4.6 mm×5 cm; 5 μm; Waters Corp., Medford, Mass.) at a flow rate of 2 mL/min, using a mobile phase consisting of a mixture of 0.1% formic acid in water (A) and 0.1% formic acid in acetonitrile (B) (linear gradient 0 to 0.5 min, 10% B; 3.0 min 90% B, 3.5 min 90% B, 3.6 min 10% B; the system was equilibrated for 1.4 minutes at 10% B prior to the next injection). The eluate was diverted to waste for the first minute, and then to a Sciex API-3000 triple quadruple mass spectrometer (available, for example, from Perkin Elmer, Boston, Mass.) with a Turbo Ionspray ionization source operated in the positive ion mode. […] Metabolite concentrations were determined by weighted linear least-squares regression analysis, using Analyst Quantitation Wizard software version 1.2 (Applied Biosystems, Foster City, Calif.).
To compare IC50 values of several known CYP2C9 inhibitors obtained in the radiometric assay with those obtained by conventional HPLC-mass spectrometric assay, reactions were performed in the absence or presence of different concentrations of known inhibitors. Tritiated water formation and formation of unlabelled reaction product 4′OH-diclofenac were determined in the same reaction mixture. The 4′-OH-diclofenac was quantified by HPLC coupled to triple quadruple mass spectrometric analysis.

CYP2C9 [3] = target: T1, CYP2C9; conditions: Cohen et al.; cited from earlier work
CYP2C9 [4] = target: T1, CYP2C9; conditions: sulfaphenazole at 10 μM, 10 μM unlabelled diclofenac, FIG. 12

T1 sequence (P11712 whole entry): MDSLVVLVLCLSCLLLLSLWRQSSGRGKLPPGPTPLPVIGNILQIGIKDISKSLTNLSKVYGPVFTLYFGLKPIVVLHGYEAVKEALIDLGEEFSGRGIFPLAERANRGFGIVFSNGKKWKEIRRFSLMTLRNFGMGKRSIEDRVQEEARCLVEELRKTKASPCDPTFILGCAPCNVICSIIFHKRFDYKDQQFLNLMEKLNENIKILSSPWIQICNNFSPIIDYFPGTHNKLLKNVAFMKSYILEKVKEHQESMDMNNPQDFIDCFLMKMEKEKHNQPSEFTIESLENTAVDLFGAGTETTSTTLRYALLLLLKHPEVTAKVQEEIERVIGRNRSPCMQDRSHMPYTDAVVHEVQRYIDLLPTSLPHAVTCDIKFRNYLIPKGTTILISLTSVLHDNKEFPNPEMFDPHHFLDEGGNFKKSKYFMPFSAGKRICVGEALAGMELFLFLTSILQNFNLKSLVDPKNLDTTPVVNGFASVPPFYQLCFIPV

With Cc1nc2c([nH]1)c(=O)n(C)c(=O)n2Cc1ccco1 [furafylline] the “effect on NADPH-dependent formation of tritiated water from [4′-3H]-diclofenac in HLM (in words)” value (CYP2C9 [1]; human, microsomes) was “none of these agents significantly affected”.
For CC(=O)[C@H]1CC[C@H]2[C@@H]3CCC4=CC(=O)CC[C@]4(C)[C@H]3CC[C@]12C [Progesterone], the IC50 (CYP2C9 [1]) was 25.2 ± 3.1 µM, the “Ratio (radiometric/conventional)” value (CYP2C9 [1]) was 1.26 and the IC50 (CYP2C9 [2]) was 20 ± 4.6 µM.
For COc1ccc2c(c1)c(CC(=O)O)c(C)n2C(=O)c1ccc(Cl)cc1 [Indomethacin], the IC50 (CYP2C9 [1]) was 54.8 ± 8.1 µM, the “Ratio (radiometric/conventional)” value (CYP2C9 [1]) was 0.96 and the IC50 (CYP2C9 [2]) was 57 ± 10.5 µM.
In the case of COCC(=O)O[C@]1(CCN(C)CCCc2nc3ccccc3[nH]2)CCc2cc(F)ccc2[C@@H]1C(C)C [Mibefradil], the IC50 (CYP2C9 [1]) is reported as 40 ± 5 µM, the “Ratio (radiometric/conventional)” value (CYP2C9 [1]) is reported as 0.69 and the IC50 (CYP2C9 [2]) is reported as 57.6 ± 9.9 µM.
In the case of CC(=O)CC(c1ccccc1)c1c(O)c2ccccc2oc1=O (centres unmarked) [warfarin], the “inhibitor of CYP2C9 when probed with the fluorogenic substrate MFC” value (CYP2C9 [3]) is listed as “not”.
For Clc1ccc(COC(Cn2ccnc2)c2ccc(Cl)cc2Cl)c(Cl)c1 (centres unmarked) [Miconazole], the IC50 (CYP2C9 [1]) was 0.2 ± 0.02 µM, the “Ratio (radiometric/conventional)” value (CYP2C9 [1]) was 1.54 and the IC50 (CYP2C9 [2]) was 0.13 ± 0.03 µM.
Work on CC(=O)C[C@@H](c1ccccc1)c1c(O)c2ccccc2oc1=O [S-Warfarin] yielded an IC50 (CYP2C9 [1]; read-out: IC50 (μM) radiometric, HLM, formation rate of [3H]-H2O from [4′-3H]-diclofenac, mean ± SEM, n = 2) of 14.6 ± 2.3 µM and an IC50 (CYP2C9 [2]; read-out: IC50 (μM) Conventional, HLM, formation rate of 4′-hydroxydiclofenac by LC-MS/MS, same reaction mixture, mean ± SEM, n = 2) of 8.7 ± 3.6 µM.
For CCCCC1C(=O)N(c2ccccc2)N(c2ccccc2)C1=O [Phenylbutazone], the IC50 (CYP2C9 [1]) was 41.4 ± 6.5 µM, the “Ratio (radiometric/conventional)” value (CYP2C9 [1]) was 0.94 and the IC50 (CYP2C9 [2]) was 44.2 ± 2.2 µM.
In the case of Nc1ccc(S(=O)(=O)Nc2ccnn2-c2ccccc2)cc1 [Sulfaphenazole], the “Ratio (radiometric/conventional)” value (CYP2C9 [1]) is reported as 0.96, the “effect on NADPH-dependent formation of tritiated water from [4′-3H]-diclofenac in HLM (in words)” value (CYP2C9 [1]; human, microsomes) is reported as “inhibited” and the “effect on formation of tritiated water from [4′-3H]diclofenac in human hepatocytes (in words)” value (CYP2C9 [4]) is reported as “almost totally inhibited”.
For COc1ccc2[nH]c([S+]([O-])Cc3ncc(C)c(OC)c3C)nc2c1 (centres unmarked) [Omeprazole], the IC50 (CYP2C9 [1]) was 43.8 ± 10.4 µM, the “Ratio (radiometric/conventional)” value (CYP2C9 [1]) was 1.04 and the IC50 (CYP2C9 [2]) was 42.3 ± 15.3 µM.
For O=C(O)Cc1ccccc1Nc1c(Cl)cccc1Cl [diclofenac], the “ratio between V′max and Vmax” value (CYP2C9 [1]) was 0.9, the “Hill coefficient n (v′ vs. S)” value (CYP2C9 [1]; human, 10 min, pH 7.6) was 1.15±0.05 and the “V′max (apparent maximal rate of product formation)” value (CYP2C9 [1]; human, 10 min, pH 7.6) was 1.5 ± 0.1 nmol/min/mg. The Km at 10 min (CYP2C9 [1]; human, microsomes, pH 7.6) was 6.8 ± 1 µM, the “Hill coefficient of 4′-hydroxydiclofenac formation” value (CYP2C9 [2]; human, 10 min, pH 7.6) was 1.1±0.1 and the Km at 10 min (CYP2C9 [2]; human, microsomes, pH 7.6) was 6.2 ± 0.9 µM. For the same compound, the Km (CYP2C9 [2]; human, pH 7.6) was ~6 µM.
In the case of Cc1ccc(C)c(OCCCC(C)(C)C(=O)O)c1 [Gemfibrozil], the IC50 (CYP2C9 [1]) is reported as 27.7 ± 6.9 µM, the “Ratio (radiometric/conventional)” value (CYP2C9 [1]) is reported as 0.71 and the IC50 (CYP2C9 [2]) is reported as 39.1 ± 7.1 µM.
